Experimental data published in patent US9745288B2, “Compounds and methods for treating cancer by inhibiting the urokinase receptor” (Indiana University Research and Technology Corporation, priority 2011, dated 2017).
Each block holds one molecule with its values, some of them ahead of it.

Legend:
CYP2C9 = CYP2C9 (Homo sapiens, UniProt P11712); assay: Fluorescence-based CYP2C9 inhibition assay; settings: 5 μM
Description: CYP metabolism was measured using a fluorescence-based assay designed by Cohen et al.,^41 recently implemented by Invitrogen (Carlsbad, Calif.).

uPAR = target: T1, uPAR (Homo sapiens, UniProt Q03405); assay: Fluorescence polarization assay, displacement of AE147-FAM peptide from uPAR; assay type: binding; settings: Table 1, assay not stated; for Ki: read-out: Ki
T1 construct: human uPAR (suPAR, amino acids 1-283) was expressed in stably transfected Drosophila S2 cells; made in house; host or cells: Drosophila S2 cells
Description: Fluorescence Polarization Assay. The fluorescence polarization assay used fluorescent AE147-FAM peptide. uPAR was titrated against the fluorescent AE147-FAM peptide and data were fit to a sigmoidal dose-dependent curve as the FP value increases to determine the Kd of binding using Sigmaplot (Systat Software Inc., CA). Inhibitor screens were carried out in triplicates using 500 nM uPAR, 100 nM AE147-FAM, and inhibitor concentrations ranging from 0.78 μM to 100 μM in 50 μL volumes in black BD Falcon 384-well microplate. […] Polarized fluorescence intensities were measured immediately following addition of inhibitors to the protein-peptide mix at room temperature on an EnVision® Multilabel Plate Readers (PerkinElmer) with excitation and emission wavelengths of 485 nm and 530 nm, respectively.
Cloning, Expression and Purification of uPAR. uPAR was successfully cloned, expressed and purified. From 1 L of culture, nearly 12 mg of protein was expressed, which will be sufficient to conduct the experiments disclosed herein. Briefly, a truncated, soluble form of human uPAR (suPAR, amino acids 1-283) was expressed in stably transfected Drosophila S2 cells using the Drosophila Expression System (Invitrogen). suPAR was obtained by a two-step purification process. The conditioned culture medium was filtered (0.45 μm) and loaded onto a DEAE Sephadex column equilibrated with 20 mM Tris (pH 7.4). The protein was eluted with a gradient of 0-1 M NaCl in 20 mM Tris (pH 7.4). suPAR containing fractions were then pooled, concentrated, and filtered prior to RP-HPLC using a semi-preparative (10×25 cm) C8 column. A 1 mL aliquot of the concentrated protein was loaded onto the column at initial gradient conditions of 95% eluent A and 5% eluent B, where eluent A was 0.1% TFA/100% H2O and eluent B was 70:30 acetonitrile/[…]. The protein elutes using a gradient of 5% eluent A to 95% eluent B over 46 minutes at a flow rate of 4 mL/min. Under these conditions, the protein eluted as a single sharp peak (tR=29 min). […] Surface plasmon resonance confirmed that the purified uPAR was capable of binding to uPA. The identity of the 60 kDa band was established by immunoblot (not shown).
The design of a fluorescent probe was guided by the three-dimensional structure of uPAR in complex with peptide AE147.^27 As this peptide binds at the same site that is occupied by the growth factor-like domain of uPA, it provides the basis for the development of a competition assay to assess binding to this site. Flurescein was introduced to the N-terminus of AE147.
All 210 compounds were screened at initial concentration of 50 μM for displacement of AE147-FAM peptide. Eleven compounds gave polarization readings that were five times that of the standard deviation of the control peptide (FIG. 1B). Secondary concentration-dependent study for these eleven compounds was performed.
The resulting inhibition curves were used to determine an inhibition constant, Ki, for each.

MMP-9 = assay: Gelatin zymography of MDA-MB-231 conditioned medium; assay type: cell-based, human
Description: Gelatin Zymography. MDA-MB-231 cells were treated with different concentrations of uPAR compounds in serum free medium for 24 h, the conditioned medium were collected, concentrated by Amicon Ultra centrifugal filter units (Millipore, #UFC500324), proteins were normalized and electrophoresed on sodium dodecyl sulfate (SDS)-polyacrylamide gels (10%) containing 1 mg/mL gelatin. After electrophoresis, the gel was washed twice in 50 mM Tris-HCl (pH 7.6) containing 5 mM CaCl2 and 2.5% Triton X-100 for 30 minutes at room temperature and incubated in buffer that contained 50 mM Tris-HCl (pH 7.6), 200 mM NaCl, 10 mM CaCl2 at 37° C. for 36 h. Then, the gels were stained with 0.05% Coomassie brilliant blue (CBB) and destained with 30% methanol in 10% acetic acid. Areas of gelatinolytic degradation appeared as transparent bands on the blue stained background of the gel. Data were quantified using Image J.
To degrade collagen within the ECM, malignant cells unleash a series of extracelullar proteases known as matrix metalloproteinases (MMPs).

MDA-MB-231 cells [1] = assay: Adhesion assay on fibronectin-coated wells; assay type: cell-based, human; settings: MDA-MB-231
Description: Adhesion Assay. Quantitative cell adhesion assays were carried out in nontissue culture treated 96-well microtiter plates (Evergreen Scientific, Los Angeles, Calif.) which were coated with 15 μg/mL fibronectin (Sigma) for 1 h at room temperature. Fibronectin coated and uncoated control wells were blocked for 1 h with 3% heat denatured bovine serum albumin (BSA) at 37° C. Cells were split one day prior to the experiment to achieve a subconfluent culture. […] The wells were washed and the number of adherent cells was quantified by crystal violet staining at 570 nm.^19,20 The results were shown by means±SE.

PANC-1 cells [2] = assay: MTT assay; assay type: cell-based, human
Description: (§1) Proliferation Assay. The procedure consisted of culturing cells at 37° C. in 10% FBS-DMEM medium containing various amounts of compound. 5 mM compound stock in 100% DMSO was 1:50 diluted in medium, filtered, and serially diluted in 96-well plate. Then seeded cells were incubated for 3 days. Viable cells were quantified by MTT assay at absorbance of 570 and 630 nm.
Some of the compounds of the presently disclosed subject matter were tested in a MTT assay using a human pancreas carcinoma cell line PANC-1 (FIG. 12A). […] One of these compounds, IPR-737, was further tested in a MTT assay using MDA-MB-231, AsPC-1 (human pancreas adenocarcinoma cell line), and PANC-1 cells.

PANC-1 cells [3] = assay: PANC-1 invasion assay; assay type: cell-based, human
MDA-MB-231 cells [4] = assay: Invasion assay (Boyden chamber, Matrigel); assay type: cell-based, human
Description: Invasion and Migration Assays. These assays were performed using BD BioCoat Matrigel Invasion Chamber (Cat. 354480, BD Biosciences, Bedford, Mass.). The undersurface of the inserts was coated with 30 μg/mL of fibronectin (Sigma, F2006) in PBS at 4° C. overnight. The inserts were washed with PBS once. Then, 0.5 mL of serum-free medium was separately added to the upper and lower chambers to equilibrate the Matrigel invasion chambers at 37° C., 5% CO2 for 2 hours. After starvated with serumfree DMEM or 4 hours, subconfluent MDA-MB-231 cells were trypsinized and resuspended in 0.1% FBS DMEM. 5×10^4 cells in 500 μL of 0.1% FBS DMEM containing various compounds or 1.0% DMSO (as control) were added to the upper chambers. 500 μL of 10% FBS DMEM containing the same concentration of the same compound or DMSO were added to the lower chambers. We incubated the invasion chambers for 3 hours at 37° C., 5% CO2. Non-invaded cells were removed from the upper chamber with a cotton swab. The invaded cells were fixed with 100% methanol and then stained with Hematoxylin Stain Harris Modified Method (Fisher, SH30-500D). The filters were washed with water 3 times. Filters were air dried and the invaded cells were counted in ten randomly selected microscopic fields (×200 magnification). The experiment was performed in triplicate per group and shown by mean±SE.
Whether the two active compounds affected invasion, adhesion and migration in cell culture in a concentration-dependent study was tested (FIGS. 2A, 2B). For invasion, the Transwell (or Boyden) chamber assay was used.^28 The assay uses a chamber with two compartments that are separated by a microporous membrane known as Matrigel consisting of components of the ECM such as collagen, laminin and fibronectin.^28
Invasive tumor cells degrade the Matrigel and migrate through the membrane to the lower compartment. […] FIGS. 2A and 2B show the effect of representative presently disclosed compounds on MDA-MB-231 metastasis. Percent inhibition of invasion, migration, and adhesion of MDA-MB-231 by compounds that bind to uPAR.

MDA-MB-231 cells [5] = assay: MTT proliferation assay; assay type: cell-based, human; settings: MDA-MB-231
Description: as §1
FIGS. 4A-4D show inhibition of MDA-MB-231 proliferation and mechanism of cell killing. To gain insight into the mechanism by which these compounds are inhibiting growth, a flow cytometry analysis with annexin V-FITC and PI staining was performed. The level of apoptotic cells in MDA-MB-231 was assessed by the percentage of Annexin V-positive/PI-negative cells present after exposure of MDAMB-231 cells to increasing concentration of IPR-69 for 24 h (FIG. 4B). At a concentration of 50 μM, IPR-69 induced significant apoptosis as evidenced by a 51% and 21% increase in apoptotic cells (Annexin V positive/PI-negative) and necrotic cells (Annexin V-positive/PI-positive), respectively. […] At a concentration of 50 μM, 26% of cells were necrotic (Annexin V positive/PI-positive), a 22% increase over control. 46% of cells were apoptotic (Annexin V positive/PInegative), compared with 4% of control.

[6] = system: different signaling molecules; assay: Western blot analysis of signaling; assay type: cell-based; settings: n=1
Description: In light of the previously reported role of uPAR in signaling, the effect of IPR-993, IPR-737, IPR-81 and IPR-69 on signaling was studied by Western blot analysis (FIG. 23). A concentration-dependent study was carried out for IPR-737.

T1 sequence (Q03405 23-305): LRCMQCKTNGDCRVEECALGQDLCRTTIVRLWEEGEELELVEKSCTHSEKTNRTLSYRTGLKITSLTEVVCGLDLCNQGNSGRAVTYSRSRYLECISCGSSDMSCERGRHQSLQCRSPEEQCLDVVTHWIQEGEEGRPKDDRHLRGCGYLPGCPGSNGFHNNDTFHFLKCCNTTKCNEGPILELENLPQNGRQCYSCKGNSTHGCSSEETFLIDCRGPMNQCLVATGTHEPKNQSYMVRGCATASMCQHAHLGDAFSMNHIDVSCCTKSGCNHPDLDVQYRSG
Chain of CYP2C9 (P11712 whole entry): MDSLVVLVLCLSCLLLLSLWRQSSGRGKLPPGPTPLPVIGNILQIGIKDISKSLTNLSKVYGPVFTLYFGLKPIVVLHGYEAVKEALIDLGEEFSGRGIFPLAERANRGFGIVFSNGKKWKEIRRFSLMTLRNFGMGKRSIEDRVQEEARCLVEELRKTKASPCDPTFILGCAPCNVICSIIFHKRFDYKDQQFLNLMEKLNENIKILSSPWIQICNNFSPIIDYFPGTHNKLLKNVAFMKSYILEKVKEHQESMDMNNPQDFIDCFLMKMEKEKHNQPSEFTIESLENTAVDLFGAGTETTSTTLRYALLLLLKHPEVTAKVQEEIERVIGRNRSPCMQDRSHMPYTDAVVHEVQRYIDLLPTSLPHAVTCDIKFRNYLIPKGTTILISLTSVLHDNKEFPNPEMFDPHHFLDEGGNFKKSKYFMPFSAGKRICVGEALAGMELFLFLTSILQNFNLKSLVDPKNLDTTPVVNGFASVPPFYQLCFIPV

IC50 (uPAR): 24.2 µM
Ki (uPAR): 7.3 µM
SMILES: COc1ccccc1C(CCNCc1ccccc1)c1ccc2c(c1)OCO2 (stereo not drawn) [IPR-022]

IC50 (uPAR): 42 µM
Ki (uPAR): 12.8 µM
SMILES: COc1ccc(N2C(=O)CCC(C(=O)Nc3ccc(OC)c(Cl)c3)C2c2ccc(OC)c(OC)c2)cc1 (stereo not drawn) [IPR-108]

Second part, the molecule before the results:

SMILES: Nc1ccc(S(=O)(=O)Nc2ccnn2-c2ccccc2)cc1 [sulphaphenazole, reference compound]
inhibition of CYP2C9 (CYP2C9): approximately 69%

SMILES: c1ccc(CNCCC(Cc2ccccc2)c2ccc3c(c2)OCO3)cc1 (stereo not drawn) [IPR-021]
IC50 (uPAR): 58.7 µM
Ki (uPAR): 17.9 µM

SMILES: CCCCCCOc1cccc(N2C(=O)C(O)=C(C(=O)c3ccccc3)C2c2ccc(CC)cc2)c1 (stereo not drawn) [IPR-993]
MMP-9 activity in gelatin zymography (MMP-9): did not appear to demonstrate impairment of MMP-9 activity
cell adhesion (MDA-MB-231 cells [1]): some activity
cell proliferation / viability (MTT, words) (PANC-1 cells [2]): inhibited cell viability
cell viability in the PANC-1 invasion assay (PANC-1 cells [3]): little decrease in cell viability
PANC-1 invasion (PANC-1 cells [3]; increasing concentrations): inhibition of activity with increasing concentrations of compound
cell invasion (MDA-MB-231 cells [4]): inhibition of activity with increasing concentrations of compound
cell proliferation / viability (MTT, words) (MDA-MB-231 cells [5]): inhibited cell viability
effect on signaling molecules [6]: did not seem to be much of an effect
